PubChem BioAssay AID2060507 (Molecular Pharmacology Branch, DTP, NCI, 2025)

Tested on: 519858-162-T-J1-PDC complex spheroid viability
Assay: Anticancer human tumor 519858-162-T-J1-PDC patient-derived colon adenocarcinoma cell line growth inhibition [GQUAD]
Settings: for IC50: curve of first compound; for viability, T/C: stronger effect = lower value
Summary of the method: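 Viability of tumor cells grown as complex spheroids with endothelial and stromal cells, exposed to drug combinations. Top concentration at or near clinical Cmax (else 10 microM), diluted in half-log increments.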

[1] = second compound 0.0316 µM, first compound 0.0316 µM
[2] = second compound 0.0316 µM, first compound 0.1 µM
[3] = second compound 0.0316 µM, first compound 0.316 µM
[4] = second compound 0.0316 µM, first compound 1 µM
[5] = second compound 0.0316 µM, first compound 3.16 µM
[6] = second compound 0.0316 µM, first compound 10 µM
[7] = second compound 0.1 µM, first compound 0.0316 µM
[8] = second compound 0.1 µM, first compound 0.1 µM
[9] = second compound 0.1 µM, first compound 0.316 µM
[10] = second compound 0.1 µM, first compound 1 µM
[11] = second compound 0.1 µM, first compound 3.16 µM
[12] = second compound 0.1 µM, first compound 10 µM
[13] = second compound 0.316 µM, first compound 0.0316 µM
[14] = second compound 0.316 µM, first compound 0.1 µM
[15] = second compound 0.316 µM, first compound 0.316 µM
[16] = second compound 0.316 µM, first compound 1 µM
[17] = second compound 0.316 µM, first compound 3.16 µM
[18] = second compound 0.316 µM, first compound 10 µM
[19] = second compound 1 µM, first compound 0.0316 µM
[20] = second compound 1 µM, first compound 0.1 µM
[21] = second compound 1 µM, first compound 0.316 µM
[22] = second compound 1 µM, first compound 1 µM
[23] = second compound 1 µM, first compound 3.16 µM
[24] = second compound 1 µM, first compound 10 µM
[25] = second compound 3.16 µM, first compound 0.0316 µM
[26] = second compound 3.16 µM, first compound 0.1 µM
[27] = second compound 3.16 µM, first compound 0.316 µM
[28] = second compound 3.16 µM, first compound 1 µM
[29] = second compound 3.16 µM, first compound 3.16 µM
[30] = second compound 3.16 µM, first compound 10 µM
[31] = second compound 10 µM, first compound 0.0316 µM
[32] = second compound 10 µM, first compound 0.1 µM
[33] = second compound 10 µM, first compound 0.316 µM
[34] = second compound 10 µM, first compound 1 µM
[35] = second compound 10 µM, first compound 3.16 µM
[36] = second compound 10 µM, first compound 10 µM
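For viability, T/C in this document: 100% = DMSO vehicle control viability.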

SMILES: CC(C)(O)C1CCC(Nc2ccc3ncc(-c4cccc(C(F)(F)F)c4)n3n2)CC1 (stereo not drawn) + Cc1[nH]c2ccc(F)cc2c1-c1nc2c3cccnc3c3ncccc3c2[nH]1
- IC50 (second compound 0.0316 µM): 2370 nM
- IC50 (second compound 0.1 µM): 2200 nM
- IC50 (second compound 0.316 µM): 1970 nM
- IC50 (second compound 1 µM): 1810 nM
- IC50 (second compound 3.16 µM): 1750 nM
- IC50 (second compound 10 µM): 1650 nM
- viability, T/C [1]: 87.7%
- viability, T/C [2]: 99.6%
- viability, T/C [3]: 104%
- viability, T/C [4]: 98.5%
- viability, T/C [5]: 16.1%
- viability, T/C [6]: 52.3%
- viability, T/C [7]: 101%
- viability, T/C [8]: 82.5%
- viability, T/C [9]: 97.5%
- viability, T/C [10]: 120%
- viability, T/C [11]: 26.7%
- viability, T/C [12]: 26.9%
- viability, T/C [13]: 68.2%
- viability, T/C [14]: 84.2%
- viability, T/C [15]: 89.3%
- viability, T/C [16]: 131%
- viability, T/C [17]: 14.9%
- viability, T/C [18]: 24.8%
- viability, T/C [19]: 88%
- viability, T/C [20]: 89.3%
- viability, T/C [21]: 99.9%
- viability, T/C [22]: 100%
- viability, T/C [23]: 7.25%
- viability, T/C [24]: 9.88%
- viability, T/C [25]: 97.7%
- viability, T/C [26]: 84%
- viability, T/C [27]: 71.5%
- viability, T/C [28]: 122%
- viability, T/C [29]: 2.95%
- viability, T/C [30]: 4.04%
- viability, T/C [31]: 87.5%
- viability, T/C [32]: 63%
- viability, T/C [33]: 80.3%
- viability, T/C [34]: 102%
- viability, T/C [35]: 6.15%
- viability, T/C [36]: 7.1%

SMILES: Cc1[nH]c2ccccc2c1CCNCc1ccc(/C=C/C(=O)NO)cc1 + Cc1[nH]c2ccc(F)cc2c1-c1nc2c3cccnc3c3ncccc3c2[nH]1
- IC50 (second compound 0.0316 µM): > 316 nM
- IC50 (second compound 0.1 µM): 91 nM
- IC50 (second compound 0.316 µM): 165 nM
- IC50 (second compound 1 µM): > 316 nM
- IC50 (second compound 3.16 µM): > 316 nM
- IC50 (second compound 10 µM): 134 nM
- viability, T/C (second compound 0.0316 µM, first compound 0.000999 µM): 99.7%
- viability, T/C (second compound 0.0316 µM, first compound 0.00316 µM): 117%
- viability, T/C (second compound 0.0316 µM, first compound 0.00999 µM): 115%
- viability, T/C [1]: 120%
- viability, T/C (second compound 0.0316 µM, first compound 0.0999 µM): 64.1%
- viability, T/C [3]: 49.7%
- viability, T/C (second compound 0.1 µM, first compound 0.000999 µM): 82.1%
- viability, T/C (second compound 0.1 µM, first compound 0.00316 µM): 128%
- viability, T/C (second compound 0.1 µM, first compound 0.00999 µM): 117%
- viability, T/C [7]: 88.3%
- viability, T/C (second compound 0.1 µM, first compound 0.0999 µM): 42%
- viability, T/C [9]: 51.3%
- viability, T/C (second compound 0.316 µM, first compound 0.000999 µM): 113%
- viability, T/C (second compound 0.316 µM, first compound 0.00316 µM): 67.8%
- viability, T/C (second compound 0.316 µM, first compound 0.00999 µM): 76%
- viability, T/C [13]: 113%
- viability, T/C (second compound 0.316 µM, first compound 0.0999 µM): 59.8%
- viability, T/C [15]: 37.2%
- viability, T/C (second compound 1 µM, first compound 0.000999 µM): 107%
- viability, T/C (second compound 1 µM, first compound 0.00316 µM): 54.1%
- viability, T/C (second compound 1 µM, first compound 0.00999 µM): 86.5%
- viability, T/C [19]: 73.3%
- viability, T/C (second compound 1 µM, first compound 0.0999 µM): 54.5%
- viability, T/C [21]: 53.2%
- viability, T/C (second compound 3.16 µM, first compound 0.000999 µM): 65.3%
- viability, T/C (second compound 3.16 µM, first compound 0.00316 µM): 56.5%
- viability, T/C (second compound 3.16 µM, first compound 0.00999 µM): 64.8%
- viability, T/C [25]: 54%
- viability, T/C (second compound 3.16 µM, first compound 0.0999 µM): 70.2%
- viability, T/C [27]: 46.7%
- viability, T/C (second compound 10 µM, first compound 0.000999 µM): 76.9%
- viability, T/C (second compound 10 µM, first compound 0.00316 µM): 77.7%
- viability, T/C (second compound 10 µM, first compound 0.00999 µM): 55%
- viability, T/C [31]: 65.5%
- viability, T/C (second compound 10 µM, first compound 0.0999 µM): 52.4%
- viability, T/C [33]: 43.2%

SMILES: O=C(NO)c1cnc(N2CCN(S(=O)(=O)c3ccc4ccccc4c3)CC2)nc1 + Cc1[nH]c2ccc(F)cc2c1-c1nc2c3cccnc3c3ncccc3c2[nH]1
- IC50 (second compound 0.0316 µM): 353 nM
- IC50 (second compound 0.1 µM): 242 nM
- IC50 (second compound 0.316 µM): 311 nM
- IC50 (second compound 1 µM): 251 nM
- IC50 (second compound 3.16 µM): 204 nM
- IC50 (second compound 10 µM): 195 nM
- viability, T/C [1]: 82.3%
- viability, T/C [2]: 82.8%
- viability, T/C [3]: 53.8%
- viability, T/C [4]: 10%
- viability, T/C [5]: 0.42%
- viability, T/C [6]: 0.52%
- viability, T/C [7]: 102%
- viability, T/C [8]: 102%
- viability, T/C [9]: 34.3%
- viability, T/C [10]: 8.48%
- viability, T/C [11]: 0.31%
- viability, T/C [12]: 0.42%
- viability, T/C [13]: 85.4%
- viability, T/C [14]: 95.8%
- viability, T/C [15]: 48.9%
- viability, T/C [16]: 8.61%
- viability, T/C [17]: 0.35%
- viability, T/C [18]: 1.29%
- viability, T/C [19]: 75.9%
- viability, T/C [20]: 77.4%
- viability, T/C [21]: 43%
- viability, T/C [22]: 7.91%
- viability, T/C [23]: 0.49%
- viability, T/C [24]: 1.27%
- viability, T/C [25]: 83%
- viability, T/C [26]: 87.8%
- viability, T/C [27]: 28.2%
- viability, T/C [28]: 5.99%
- viability, T/C [29]: 1.44%
- viability, T/C [30]: 0.36%
- viability, T/C [31]: 64.7%
- viability, T/C [32]: 69.7%
- viability, T/C [33]: 36.7%
- viability, T/C [34]: 13.9%
- viability, T/C [35]: 0.79%
- viability, T/C [36]: 0.64%

SMILES: COc1ccc([C@@H](O)c2cc(-c3ncnc4cc(N5CCOCC5)ccc34)c(F)cc2Cl)nn1 + Cc1cnc(CNC(=O)c2c(=O)c3ccc(N4CCCN(C)CC4)nc3n3c2sc2ccccc23)cn1
- IC50 (second compound 0.0316 µM): 10000 nM
- IC50 (second compound 0.1 µM): 3660 nM
- IC50 (second compound 0.316 µM): 4180 nM
- IC50 (second compound 1 µM): 9070 nM
- IC50 (second compound 3.16 µM): 243 nM
- IC50 (second compound 10 µM): < 31.6 nM
- viability, T/C [1]: 72.4%
- viability, T/C [2]: 102%
- viability, T/C [3]: 81.6%
- viability, T/C [4]: 99.3%
- viability, T/C [5]: 48.9%
- viability, T/C [6]: 53%
- viability, T/C [7]: 75.6%
- viability, T/C [8]: 70.5%
- viability, T/C [9]: 62.8%
- viability, T/C [10]: 50.8%
- viability, T/C [11]: 55.1%
- viability, T/C [12]: 44.8%
- viability, T/C [13]: 109%
- viability, T/C [14]: 72.9%
- viability, T/C [15]: 80%
- viability, T/C [16]: 56.1%
- viability, T/C [17]: 41.7%
- viability, T/C [18]: 52%
- viability, T/C [19]: 56.7%
- viability, T/C [20]: 49.9%
- viability, T/C [21]: 48.1%
- viability, T/C [22]: 47.9%
- viability, T/C [23]: 67.3%
- viability, T/C [24]: 41%
- viability, T/C [25]: 58.4%
- viability, T/C [26]: 62.2%
- viability, T/C [27]: 46.9%
- viability, T/C [28]: 30%
- viability, T/C [29]: 34.8%
- viability, T/C [30]: 45.9%
- viability, T/C [31]: 36.6%
- viability, T/C [32]: 33.5%
- viability, T/C [33]: 49.3%
- viability, T/C [34]: 35.2%
- viability, T/C [35]: 47.7%
- viability, T/C [36]: 37.7%
